Laboratory results published in PubChem BioAssay (NCI).
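Protocol summary: plate cells (96-well), add compound at 5 concentrations, incubate 48 h, interpolate endpoints linearly. At the GI50, growth is halved. At the TGI there is no net growth.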

Assays:
Assay in all cases: NCI tumour cell line growth inhibition, 48 h
DLD-1 colon = test system: DLD-1 colon
DMS 114 small cell lung = test system: DMS 114 small cell lung
HCT-15 colon = test system: HCT-15 colon
RXF 393 renal = test system: RXF 393 renal
SF-295 CNS = test system: SF-295 CNS
SK-OV-3 ovarian = test system: SK-OV-3 ovarian
SW-620 colon = test system: SW-620 colon
SK-MEL-2 melanoma = test system: SK-MEL-2 melanoma
MCF7 breast = test system: MCF7 breast
T-47D breast = test system: T-47D breast

SMILES | TGI (DLD-1 colon) | TGI (DMS 114 small cell lung) | TGI (HCT-15 colon) | TGI (RXF 393 renal) | TGI (SF-295 CNS) | TGI (SK-OV-3 ovarian) | TGI (SW-620 colon) | TGI (SK-MEL-2 melanoma) | GI50 (HCT-15 colon) | GI50 (MCF7 breast) | TGI (MCF7 breast) | GI50 (RXF 393 renal) | GI50 (SF-295 CNS) | GI50 (SK-MEL-2 melanoma) | GI50 (SK-OV-3 ovarian) | GI50 (SW-620 colon) | GI50 (T-47D breast) | TGI (T-47D breast)
CC1(C)CC(N2CCN(C3CC(C)(C)NC(C)(C)C3)CC2)CC(C)(C)N1 | > 100 µM | > 100 µM | > 100 µM | > 100 µM | > 100 µM | > 100 µM | > 100 µM |  |  |  |  |  |  |  |  |  |  | 
COC(CC1(OC)OC(=O)C=C1N)OC (stereo not drawn) | > 100 µM | > 100 µM | > 100 µM |  | > 100 µM | > 100 µM | > 100 µM | > 100 µM |  |  |  |  |  |  |  |  |  | 
COC(=O)C1=C(\O)C[C@@]2(C)CC[C@@H](C(=O)OC)C2C/C=C\1C(=O)OC (stereo partly drawn) | > 100 µM | > 100 µM | > 100 µM | > 100 µM | > 100 µM | > 100 µM | > 100 µM |  |  |  |  |  |  |  |  |  |  | 
N#CC1C(=O)NC(=O)C1=O (stereo not drawn) |  | > 100 µM | > 100 µM | > 100 µM | > 100 µM | > 100 µM | > 100 µM | > 100 µM |  |  |  |  |  |  |  |  |  | 
CC(=O)C(C=O)C(C)=O.CC(=O)CC(C)=O.CC(=O)CC(C)=O.[Ru] |  |  | 93.6 µM | > 100 µM | 68 µM | > 100 µM | 69 µM | > 100 µM | 11.7 µM | 35.4 µM | > 100 µM | 40.9 µM | 16.2 µM | 24.3 µM | 76.8 µM | 15.6 µM | 32.7 µM | > 100 µM
COc1cc(-c2nn(-c3cccc(NC(=O)CCN4CCN(C)CC4)c3)cc2-c2ccncc2)ccc1Cl |  |  | 4.11 µM | 2.77 µM | 2.75 µM | 7.34 µM | 1.86 µM | 2.55 µM | 1.08 µM | 0.35 µM | 1.92 µM | 1.09 µM | 0.968 µM | 0.889 µM | 1.81 µM | 0.443 µM | 2.34 µM | 10.1 µM
OCc1ccc(N(Cc2ccc(F)cc2)CC2CCC2)cc1Cl |  |  | 25 µM | 18 µM | 17.5 µM | 27.9 µM | 21 µM | 25.2 µM | 11.7 µM | 3.25 µM | 16.3 µM | 6.07 µM | 4.06 µM | 11.2 µM | 14.8 µM | 7.02 µM | 2.11 µM | 12.2 µM
N#Cc1c(N)c(C#N)c2c(c1-c1ccc(Cl)cc1)COc1ccc(F)cc1-2 |  |  | > 50 µM | > 50 µM | > 50 µM | > 50 µM | > 50 µM | > 50 µM | 43.8 µM | 16.5 µM | > 50 µM | > 50 µM | 13.5 µM | > 50 µM | > 50 µM | 22.5 µM | > 50 µM | > 50 µM
c1cc2c(c(NC3=NCCN3)c1)CCCC2 |  |  | > 100 µM | > 100 µM | > 100 µM | > 100 µM | > 100 µM | > 100 µM |  |  | > 100 µM |  |  |  |  |  |  | > 100 µM
O=C(/C=C/c1ccc(O)cc1)c1cc(Cl)ccc1O | > 100 µM | 67.4 µM |  | 88.9 µM | > 100 µM | > 100 µM | > 100 µM |  |  |  |  |  |  |  |  |  |  | 
Fc1ccc(-c2c(-c3ccncc3)[nH]c3nccnc23)cc1 |  |  | > 25 µM | 9.8 µM | > 25 µM | > 25 µM | > 25 µM | > 25 µM | 8.28 µM | 7.39 µM | > 25 µM | 3.69 µM | > 15.1 µM | 13.6 µM | 8.25 µM | 13.6 µM | 7.09 µM | > 25 µM
CNCCN(C)Cc1cn[nH]c1-c1ccc(OC2CC(OCCC3CCOCC3)C2)cc1 (stereo not drawn) |  |  | > 100 µM | > 100 µM | > 100 µM | > 100 µM | > 100 µM | > 100 µM | > 100 µM | > 81.2 µM | > 100 µM | 48.5 µM | 49.9 µM | > 100 µM | > 100 µM | > 100 µM | 27.8 µM | > 100 µM
N=C1/C(=C2\Nc3ccccc3S2)CC(=O)N1c1ccc(SC(F)F)cc1 |  |  | > 100 µM | 25.7 µM | 9.32 µM | > 100 µM | > 100 µM | > 100 µM | 0.347 µM | 9.35 µM | > 100 µM | 2.81 µM | 1.1 µM | 27.3 µM | 8.6 µM | 5.37 µM | 27.8 µM | > 100 µM
Cc1cn2c(/C=C3/C(=O)Nc4ccc(Cl)cc43)c(C)nc2s1 |  |  | > 92.8 µM | > 100 µM | 2.65 µM | 24.2 µM | > 67.7 µM | > 100 µM | < 0.0403 µM | 1.57 µM | > 100 µM | 6.74 µM | 0.871 µM | 21.4 µM | 0.384 µM | 0.22 µM | 4.09 µM | > 75 µM
CC[C@@]1(O)C(=O)NCc2c1cc1n(c2=O)Cc2cc3c(NC(C)=O)cccc3nc2-1 |  |  | > 100 µM | > 100 µM | > 100 µM | > 100 µM | > 100 µM | > 100 µM | > 100 µM | > 100 µM | > 100 µM | > 100 µM | > 100 µM | > 100 µM | > 100 µM | > 86.6 µM | > 100 µM | > 100 µM
O=C1/C(=C/c2ccccc2[N+](=O)[O-])COc2ccc(O)c(O)c21 |  |  | 1.15 µM | 1.46 µM | 11.1 µM | 14.3 µM | 1.44 µM | 5.99 µM | 0.286 µM | 0.409 µM | 3.02 µM | 0.357 µM | 3.26 µM | 2.18 µM | 3.91 µM | 0.353 µM | 0.918 µM | 4.72 µM
COc1cc(NC(=O)c2ccccc2Nc2ccnc(C(F)(F)F)c2)cc(OC)c1OC |  |  | > 100 µM | > 100 µM | > 100 µM | > 100 µM | > 100 µM | > 100 µM | 56.1 µM | 37.1 µM | > 100 µM | > 100 µM | 41.9 µM | 51.1 µM | > 100 µM | > 100 µM | 17.7 µM | 91.9 µM
